Patent publication US8053424B2, “Composition and method of treating hearing loss” (The Regents of the University of Michigan, priority 2006, dated 2011)

Tested on: guinea pigs
Test: Threshold shift by auditory brainstem response (ABR) testing after 120 dB SPL octave band noise
Format: in vivo, guinea pigs (NIH outbred strain)
Settings: FIG. 1-3 comparison between treatments
Method: In guinea pig studies, hearing loss and the efficacy of the composition of the subject invention for treating hearing loss is measured as an average difference in threshold shift from baseline threshold sensitivity at 4, 8, and 16 kHz, as compared to an untreated control, after exposure to 120 decibel SPL Octave Band Noise centered at 4 kHz for five hours.
To obtain those results, the composition is typically injected each day, twice a day, for three days prior to exposure to the noise and injected again each day for at least five days, typically up to ten days, subsequent to the exposure to the noise. The threshold shift is measured 10 days after exposure to the noise using auditory brainstem response (ABR) testing.
In order to determine efficacy of the composition of the present invention in treating hearing loss, baseline threshold sensitivity of the guinea pigs is measured binaurally using auditory brainstem response testing at 4, 8, and 16 kHz.
For Example 1, the guinea pigs are first treated each day, twice a day, for three days prior to exposure to 120-dB SPL Octave Band Noise centered at 4 kHz for 5 hours. The noise causes trauma to middle or inner ears of the guinea pigs and is sufficient to cause permanent threshold shift, i.e., permanent hearing loss. […] Ten days after the noise exposure, auditory sensitivity is measured using ABR. […]

SMILES | effect in minimizing threshold shift (additive effect), in words
Cc1c(C)c2c(c(C)c1O)CCC(C)(C(=O)O)O2 (centres unmarked) [Trolox®] | do not exhibit the same additive effect
O=C([O-])c1ccccc1O.[Na+] [salicylate, sodium salicylate] | do not exhibit the same additive effect
